The results in this text go back to ChEMBL document CHEMBL1208710, “NF-kappaB inducing kinase (NIK) inhibitors: identification of new scaffolds using virtual screening” (Bioorg Med Chem Lett, 2010).

In test [1] the target is T1, Mitogen-activated protein kinase kinase kinase 14 (Homo sapiens, UniProt Q99558). The test can be described thus: Inhibition of human recombinant GST-fused NIK expressed in Sf9 cells at 50 uM after 60 mins by radiometric protein kinase assay.
Target sequence in this assay (Q99558 whole entry, looked up, the tested form may be a part): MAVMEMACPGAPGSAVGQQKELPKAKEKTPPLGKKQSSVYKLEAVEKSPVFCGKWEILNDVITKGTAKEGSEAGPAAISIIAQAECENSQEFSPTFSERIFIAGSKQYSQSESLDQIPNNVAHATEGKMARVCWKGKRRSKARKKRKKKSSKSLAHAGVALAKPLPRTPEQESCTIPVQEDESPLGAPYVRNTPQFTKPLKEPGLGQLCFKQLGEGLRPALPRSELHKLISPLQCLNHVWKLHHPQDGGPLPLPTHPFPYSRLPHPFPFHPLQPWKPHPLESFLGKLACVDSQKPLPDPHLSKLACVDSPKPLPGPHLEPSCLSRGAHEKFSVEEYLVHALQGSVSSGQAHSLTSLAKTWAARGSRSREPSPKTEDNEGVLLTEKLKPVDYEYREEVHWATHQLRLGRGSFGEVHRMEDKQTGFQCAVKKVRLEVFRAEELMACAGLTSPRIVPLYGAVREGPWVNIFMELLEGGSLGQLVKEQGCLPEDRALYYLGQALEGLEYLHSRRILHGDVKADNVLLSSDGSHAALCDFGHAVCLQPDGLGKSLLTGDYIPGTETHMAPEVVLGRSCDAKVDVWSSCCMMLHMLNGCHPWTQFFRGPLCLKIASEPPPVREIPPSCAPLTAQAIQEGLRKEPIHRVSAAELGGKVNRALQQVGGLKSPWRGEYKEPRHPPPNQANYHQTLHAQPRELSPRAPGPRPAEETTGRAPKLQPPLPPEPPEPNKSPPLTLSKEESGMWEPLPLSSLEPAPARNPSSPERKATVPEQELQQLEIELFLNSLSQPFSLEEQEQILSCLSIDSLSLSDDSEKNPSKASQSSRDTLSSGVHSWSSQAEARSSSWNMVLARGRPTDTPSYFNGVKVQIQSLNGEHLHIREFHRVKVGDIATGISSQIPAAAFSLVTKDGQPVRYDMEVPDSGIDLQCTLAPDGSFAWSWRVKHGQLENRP
The target of test [2] is T1, Mitogen-activated protein kinase kinase kinase 14. The test can be described thus: Inhibition of human recombinant GST-fused NIK expressed in Sf9 cells after 60 mins by radiometric protein kinase assay.
Target sequence in this assay (Q99558 whole entry, the tested form may be a part): as the sequence (Q99558 whole entry, looked up, the tested form may be a part) above

pIC50: −log10 of the molar value.

Take `CCO/C=C1/C(=O)NC(=O)c2ccccc21`: the inhibition (usually the drop in the measured response relative to a control, in per cent) in test [1] was 44%. The pIC50 (as a rule, −log10 of the IC50, conventionally taken in molar units) in test [2] is below 4.30. With `CC(NC(=O)Cn1c(=O)[nH]c(=O)c2ccccc21)c1cccs1` (stereo unspecified), in test [1], the inhibition was below 15%. As to `CCOC(=O)N1CCC(NC(=O)Cn2c(=O)[nH]c(=O)c3ccccc32)CC1`, in test [1], the inhibition is below 15%. Turning to `O=c1[nH]c(=O)c2c(Cl)cc(Cl)cc2[nH]1`, in test [2], the pIC50 is below 4.00.

`CC1=CC(=O)c2c(O)cccc2C1=O` [PLUMBAGIN]: the inhibition in test [1] is 60%. In test [2], the pIC50 was below 4.00.

Take `CN(C)c1ccc(CNC(=O)Cn2c(=O)[nH]c(=O)c3ccccc32)cc1`: the inhibition in test [1] was below 15%. As for `O=C1Cc2ccccc2C(=O)N1`, the inhibition in test [1] was 60%. In addition, the pIC50 in test [2] was 4.29. For `O=C1NC(=O)c2ccccc2/C1=C\c1cccs1`, the inhibition in test [1] came to 25%. Further, the negative logarithm of the IC50 (pIC50) in test [2] is below 4.00.

Regarding `O=C(Cn1c(=O)[nH]c(=O)c2ccccc21)NCc1ccccn1`, the inhibition in test [1] was below 15%.

`O=C1Cc2ccccc2CN1`: in test [2], the negative-log IC50 (pIC50) is below 4.00. Turning to `O=C1CC2CC(=O)NC(=O)C2C(=O)N1` (stereo unspecified), the inhibition in test [1] was found to be 53%. Moreover, the pIC50 in test [2] was 4.05.
